The values below are quoted from earlier work in patent US10154968B2, “Buprenorphine nanoparticle composition and methods thereof” (AUBURN UNIVERSITY, priority 2012, dated 2018).

Molecules are shown by their SMILES.

As to `CO[C@@]12CC[C@@]3(C[C@@H]1[C@](C)(O)C(C)(C)C)[C@H]1Cc4ccc(O)c5c4[C@@]3(CCN1CC1CC1)[C@H]2O5` [Buprenorphine, (25)-2-[(5R,6R,7R,145)-9α-Cyclopropylmethyl-4,5-epoxy-6,14-ethano-3-hydroxy-6-methoxymorphinan-7-yl]-3,3-dimethylbutan-2-ol], where the note is “background statement”, the half-life result was “approximately two”. Further, the “excreted unchanged in the urine” value (previous studies) is on record as 27%.
